Measured values: PubChem BioAssay AID1963973 (Molecular Pharmacology Branch, DTP, NCI, 2024)

Test system: 883617-216-R-J1-PDC tumor spheroids, viability
Assay: Anticancer human tumor 883617-216-R-J1-PDC patient-derived bladder carcinoma cell line growth inhibition [PI3K]
Conditions: spheroids with HUVEC and MSC; for IC50: curve of first compound; for viability, T/C: stronger effect = lower value
Outline: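 Three cell types, namely tumor cells, endothelial cells and mesenchymal stem cells, formed each spheroid. Combinations with four PI3K inhibitors were screened at clinically achievable concentrations decreasing by half-log, and spheroid viability was recorded.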
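Also: spheroids exposed to agents for 7 days before the viability read.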

Structure (SMILES): CNC(=O)c1ccc(N2C(=S)N(c3ccc(C#N)c(C(F)(F)F)c3)C(=O)C2(C)C)cc1F + COc1c(OCCCN2CCOCC2)ccc2c3n(c(=NC(=O)c4cnc(N)nc4)nc12)CCN3
- IC50 (second compound 0.00316 µM): > 10 µM
- IC50 (second compound 0.01 µM): > 10 µM
- IC50 (second compound 0.0316 µM): < 0.0316 µM
- IC50 (second compound 0.1 µM): < 0.0316 µM
- IC50 (second compound 0.316 µM): < 0.0316 µM
- IC50 (second compound 1 µM): < 0.0316 µM
- viability, T/C (second compound 0.00316 µM, first compound 0.0316 µM): 72.6%
- viability, T/C (second compound 0.00316 µM, first compound 0.1 µM): 79.7%
- viability, T/C (second compound 0.00316 µM, first compound 0.316 µM): 85.4%
- viability, T/C (second compound 0.00316 µM, first compound 1 µM): 87.3%
- viability, T/C (second compound 0.00316 µM, first compound 3.16 µM): 98.2%
- viability, T/C (second compound 0.00316 µM, first compound 10 µM): 71.9%
- viability, T/C (second compound 0.01 µM, first compound 0.0316 µM): 61.9%
- viability, T/C (second compound 0.01 µM, first compound 0.1 µM): 68.4%
- viability, T/C (second compound 0.01 µM, first compound 0.316 µM): 64.3%
- viability, T/C (second compound 0.01 µM, first compound 1 µM): 63.4%
- viability, T/C (second compound 0.01 µM, first compound 3.16 µM): 73.6%
- viability, T/C (second compound 0.01 µM, first compound 10 µM): 65.6%
- viability, T/C (second compound 0.0316 µM, first compound 0.0316 µM): 29.5%
- viability, T/C (second compound 0.0316 µM, first compound 0.1 µM): 39%
- viability, T/C (second compound 0.0316 µM, first compound 0.316 µM): 47.5%
- viability, T/C (second compound 0.0316 µM, first compound 1 µM): 37.7%
- viability, T/C (second compound 0.0316 µM, first compound 3.16 µM): 35.9%
- viability, T/C (second compound 0.0316 µM, first compound 10 µM): 29%
- viability, T/C (second compound 0.1 µM, first compound 0.0316 µM): 16.3%
- viability, T/C (second compound 0.1 µM, first compound 0.1 µM): 15.1%
- viability, T/C (second compound 0.1 µM, first compound 0.316 µM): 19%
- viability, T/C (second compound 0.1 µM, first compound 1 µM): 17.3%
- viability, T/C (second compound 0.1 µM, first compound 3.16 µM): 16.9%
- viability, T/C (second compound 0.1 µM, first compound 10 µM): 11.9%
- viability, T/C (second compound 0.316 µM, first compound 0.0316 µM): 10.4%
- viability, T/C (second compound 0.316 µM, first compound 0.1 µM): 5.99%
- viability, T/C (second compound 0.316 µM, first compound 0.316 µM): 4.55%
- viability, T/C (second compound 0.316 µM, first compound 1 µM): 5.36%
- viability, T/C (second compound 0.316 µM, first compound 3.16 µM): 5.23%
- viability, T/C (second compound 0.316 µM, first compound 10 µM): 4.37%
- viability, T/C (second compound 1 µM, first compound 0.0316 µM): 3.25%
- viability, T/C (second compound 1 µM, first compound 0.1 µM): 3.07%
- viability, T/C (second compound 1 µM, first compound 0.316 µM): 2.92%
- viability, T/C (second compound 1 µM, first compound 1 µM): 3.17%
- viability, T/C (second compound 1 µM, first compound 3.16 µM): 4.14%
- viability, T/C (second compound 1 µM, first compound 10 µM): 3.08%
